# In patent publication US20250186388A1, “ACTIVE SUBSTANCES FOR MEDICAL USE” (INFLAMED PHARMA GMBH, priority 2020, published 2025):
# Counter-ions that a name gives are not always drawn.
# How the values were obtained:
# [1] = Solubility in octanol (content in the organic phase by UV/VIS spectroscopy, pH values); format: physicochemical; conditions: for pH value: solubility test in octanol
# Method: Solubility tests were carried out in octanol and the content in the organic phase was investigated by UV/VIS spectroscopy and the pH values.
# [2] = test system: rabbits incubated with E. coli; conditions: cited from earlier work
# [3] = rabbits incubated with E. coli, lidocaine administration
SMILES,"Content (solubility in octanol, content in the organic phase) [1]",pH value [1],incidence of pulmonary oedema ([2]; compared to a comparison group),albumin content in the bronchoalveolar lavage ([2]; lidocaine group),leucocytes in the bronchoalveolar lavage ([2]; lidocaine group),"haemorrhages, alveolar septal thickening and number of inflammatory cells in the alveolar space ([2]; rabbit, in vivo)","lung mechanics (compliance, resistance) [2, 3]","paO2 [2, 3]"
CCN(CC)CCOC(=O)c1ccc(N)cc1 [Procaine hydrochloride],8%,4.5,–,–,–,–,–,–
"CCN(CC)CCOC(=O)c1ccc(N)cc1 [Procaine, 4-aminobenzoic acid-2-(N,N-diethylamino)ethyl ester]",completely dissolved (100%),8.5,–,–,–,–,–,–
CCN(CC)CC(=O)Nc1c(C)cccc1C [lidocaine],–,–,reduced incidence,lower,fewer,visibly reduced,improved,increase
